From patent publication US9242987B2, “Heterocyclyl pyrazolopyrimidine analogues as JAK inhibitors” (Cellzome Limited, priority 2009, dated 2016) come the findings set out here.

One test has as its target T1, JAK2 (Homo sapiens, UniProt O60674).
T1 construct: endogenous in cells; host or cells: Mixed Molt4/Ramos lysate (1:2)
Kind of test: Kinobeads assay, JAK2. The following applies: mixed Molt4/Ramos cell lysate, dot blot detection. Format: binding. An outline of the steps: (§1)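 Lysate from Molt4 and Ramos cells combined 1:2 at 10 mg/mL total protein met test compound and an aminopyrido-pyrimidine affinity matrix for 3 h in the cold. Captured JAK2 and JAK3, after elution, were measured by specific-antibody dot blot on an infrared system; dose-response curves yielded IC50.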

The target of the next test is T2, JAK3 (Homo sapiens, UniProt P52333).
T2 construct: endogenous in cells; host or cells: Mixed Molt4/Ramos lysate (1:2)
T2 sequence (P52333 1-1124): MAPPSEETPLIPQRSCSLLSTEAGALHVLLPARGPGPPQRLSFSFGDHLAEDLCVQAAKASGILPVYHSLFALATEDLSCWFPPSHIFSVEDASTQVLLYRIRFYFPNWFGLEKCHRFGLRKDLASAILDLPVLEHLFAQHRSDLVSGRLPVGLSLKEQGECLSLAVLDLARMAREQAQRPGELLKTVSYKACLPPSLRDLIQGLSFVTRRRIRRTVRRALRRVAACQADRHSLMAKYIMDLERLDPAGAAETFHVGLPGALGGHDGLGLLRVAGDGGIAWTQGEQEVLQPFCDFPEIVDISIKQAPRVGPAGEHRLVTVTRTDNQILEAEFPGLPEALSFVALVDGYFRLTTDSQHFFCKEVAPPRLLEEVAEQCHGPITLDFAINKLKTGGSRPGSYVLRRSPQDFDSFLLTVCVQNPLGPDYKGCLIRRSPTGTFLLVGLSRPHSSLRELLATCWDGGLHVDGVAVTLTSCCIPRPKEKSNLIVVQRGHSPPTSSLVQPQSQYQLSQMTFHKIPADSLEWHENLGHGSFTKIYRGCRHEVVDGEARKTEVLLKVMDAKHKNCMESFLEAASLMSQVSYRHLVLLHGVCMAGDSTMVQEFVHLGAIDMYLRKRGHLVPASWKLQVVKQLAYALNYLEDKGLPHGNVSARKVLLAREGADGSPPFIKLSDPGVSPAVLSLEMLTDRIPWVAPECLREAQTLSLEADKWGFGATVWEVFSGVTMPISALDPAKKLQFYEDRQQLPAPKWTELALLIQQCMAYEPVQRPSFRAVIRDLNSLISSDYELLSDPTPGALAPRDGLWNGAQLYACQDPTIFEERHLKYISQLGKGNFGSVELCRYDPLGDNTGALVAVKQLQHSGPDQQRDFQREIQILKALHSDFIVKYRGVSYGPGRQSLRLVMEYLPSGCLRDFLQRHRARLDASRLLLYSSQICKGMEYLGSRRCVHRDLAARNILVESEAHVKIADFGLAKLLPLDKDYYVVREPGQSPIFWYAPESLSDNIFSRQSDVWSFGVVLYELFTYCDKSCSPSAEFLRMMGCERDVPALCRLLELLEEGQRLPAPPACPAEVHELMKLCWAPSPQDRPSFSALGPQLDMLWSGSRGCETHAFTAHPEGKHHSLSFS
Kind of test: Kinobeads assay, JAK3. The following applies: mixed Molt4/Ramos cell lysate, dot blot detection. In kind it is binding. An outline of the steps:
as §1

T1 sequence (O60674 whole entry): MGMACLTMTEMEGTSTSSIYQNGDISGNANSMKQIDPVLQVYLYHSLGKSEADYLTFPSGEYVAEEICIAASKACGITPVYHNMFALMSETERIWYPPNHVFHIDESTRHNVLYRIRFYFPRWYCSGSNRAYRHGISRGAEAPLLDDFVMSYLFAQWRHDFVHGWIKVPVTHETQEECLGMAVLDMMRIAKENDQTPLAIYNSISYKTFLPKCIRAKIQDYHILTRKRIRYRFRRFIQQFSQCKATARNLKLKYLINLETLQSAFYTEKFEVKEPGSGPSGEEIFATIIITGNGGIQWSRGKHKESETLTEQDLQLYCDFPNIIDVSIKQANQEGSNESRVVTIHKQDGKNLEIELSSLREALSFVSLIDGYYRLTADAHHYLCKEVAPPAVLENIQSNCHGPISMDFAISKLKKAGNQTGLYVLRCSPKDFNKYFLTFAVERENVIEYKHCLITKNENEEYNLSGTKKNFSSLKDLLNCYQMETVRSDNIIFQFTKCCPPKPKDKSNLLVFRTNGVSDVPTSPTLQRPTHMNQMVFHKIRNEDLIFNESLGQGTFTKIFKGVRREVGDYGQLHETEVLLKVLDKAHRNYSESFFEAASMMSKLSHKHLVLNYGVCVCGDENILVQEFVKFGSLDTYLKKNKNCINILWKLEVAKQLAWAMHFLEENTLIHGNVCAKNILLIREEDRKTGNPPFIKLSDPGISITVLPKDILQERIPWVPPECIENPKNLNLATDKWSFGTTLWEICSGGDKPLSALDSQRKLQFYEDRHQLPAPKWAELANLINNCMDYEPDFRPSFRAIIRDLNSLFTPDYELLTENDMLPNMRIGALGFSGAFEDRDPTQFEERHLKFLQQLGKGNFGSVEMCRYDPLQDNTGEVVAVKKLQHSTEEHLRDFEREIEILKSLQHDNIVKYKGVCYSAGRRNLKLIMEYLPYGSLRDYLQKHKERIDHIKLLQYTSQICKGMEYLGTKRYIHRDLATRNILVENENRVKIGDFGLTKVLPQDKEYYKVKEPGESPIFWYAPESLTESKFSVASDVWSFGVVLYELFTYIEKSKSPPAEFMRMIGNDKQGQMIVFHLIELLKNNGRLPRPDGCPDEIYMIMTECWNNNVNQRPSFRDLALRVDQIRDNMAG

`CN1CCN(CCCn2cc(Nc3ncc4cnn(Cc5ccccc5F)c4n3)cn2)CC1` [Example 194, 1-(2-Fluorobenzyl)-N-(1-(3-(4-methylpiperazin-1-yl)propyl)-1H-pyrazol-4-yl)-1H-pyrazolo[3,4-d]pyrimidin-6-amine]: the IC50 on JAK2 was at least 10 µM; against JAK3 it was 0.1 to 1 µM.

For `Cn1cc(Nc2ncc3cnn(Cc4c(F)cccc4Cl)c3n2)cn1` [Example 63, 1-(2-Chloro-6-fluorobenzyl)-N-(1-methyl-1H-pyrazol-4-yl)-1H-pyrazolo[3,4-d]pyrimidin-6-amine], the IC50 against JAK2 was 0.1 to 1 µM; on JAK3 it was below 0.1 µM.

For `Cn1cc(Nc2ncc3cnn(-c4ccc(Cl)cc4)c3n2)cn1` [Example 57, 1-(4-Chlorophenyl)-N-(1-methyl-1H-pyrazol-4-yl)-1H-pyrazolo[3,4-d]pyrimidin-6-amine], the results for the IC50 against JAK2 and against JAK3 were at least 10 µM and 0.1 to 1 µM, respectively.

In the case of `CN(C)C(=O)c1cc(Nc2ncc3cnn(Cc4ccccc4F)c3n2)cn1C` [Example 246, 4-((1-(2-Fluorobenzyl)-1H-pyrazolo[3,4-d]pyrimidin-6-yl)amino)-N,N,1-trimethyl-1H-pyrrole-2-carboxamide], the half-maximal inhibitory concentration (IC50) on JAK2 is 0.1 to 1 µM; at JAK3 it was below 0.1 µM.

Regarding `COc1nn(C)cc1Nc1ncc2cnn(Cc3ccccc3)c2n1` [Example 105, 1-Benzyl-N-(3-methoxy-1-methyl-1H-pyrazol-4-yl)-1H-pyrazolo[3,4-d]pyrimidin-6-amine], the concentration for half-maximal inhibition (IC50) at JAK2 is at least 10 µM; against JAK3, below 0.1 µM.

For `Fc1ccccc1Cn1ncc2cnc(Nc3cnn(CC4CCNC4)c3)nc21` (stereo not drawn) [Example 306, 1-(2-Fluorobenzyl)-N-(1-(pyrrolidin-3-ylmethyl)-1H-pyrazol-4-yl)-1H-pyrazolo[3,4-d]pyrimidin-6-amine], the half-inhibitory concentration (IC50) is 0.1 to 1 µM against JAK2 and below 0.1 µM on JAK3.

For `Fc1cccc(F)c1Cn1ncc2cnc(Nc3cnn(CC(F)F)c3)nc21` [Example 160, 1-(2,6-Difluorobenzyl)-N-(1-(2,2-difluoroethyl)-1H-pyrazol-4-yl)-1H-pyrazolo[3,4-d]pyrimidin-6-amine], the results for the IC50 at JAK2 and against JAK3 were 1 to 10 µM and below 0.1 µM, respectively.

For the compound `COc1cccc(Cn2ncc3cnc(Nc4cnn(C)c4)nc32)c1F` [Example 93, 1-(2-Fluoro-3-methoxybenzyl)-N-(1-methyl-1H-pyrazol-4-yl)-1H-pyrazolo[3,4-d]pyrimidin-6-amine], the IC50 is at least 10 µM against JAK2 and 0.1 to 1 µM on JAK3.

As to `Cn1cc(Nc2ncc3cnn(-c4ccc5c(c4)NC(=O)CO5)c3n2)cn1` [Example 219, 6-(6-((1-Methyl-1H-pyrazol-4-yl)amino)-1H-pyrazolo[3,4-d]pyrimidin-1-yl)-2H-benzo[b][1,4]oxazin-3(4H)-one], the half-maximal inhibitory concentration (IC50) against JAK2 is 0.1 to 1 µM; on JAK3, below 0.1 µM.

Consider `Cn1cc(Nc2ncc3cnn(Cc4ccccc4Cl)c3n2)cn1` [Example 27, 1-(2-Chlorobenzyl)-N-(1-methyl-1H-pyrazol-4-yl)-1H-pyrazolo[3,4-d]pyrimidin-6-amine], for which the IC50 against JAK2 was 1 to 10 µM; against JAK3, below 0.1 µM.

As for `OCCn1cc(Nc2ncc3cnn(Cc4c(F)cccc4C(F)(F)F)c3n2)cn1` [Example 261, 2-(4-((1-(2-Fluoro-6-(trifluoromethyl)benzyl)-1H-pyrazolo[3,4-d]pyrimidin-6-yl)amino)-1H-pyrazol-1-yl)ethanol], the IC50 is 1 to 10 µM on JAK2 and below 0.1 µM on JAK3.

Regarding `COc1nn(CC(F)F)cc1Nc1ncc2cnn(Cc3cc(F)ccc3C#N)c2n1` [Example 153, 2-((6-((1-(2,2-Difluoroethyl)-3-methoxy-1H-pyrazol-4-yl)amino)-1H-pyrazolo[3,4-d]pyrimidin-1-yl)methyl)-4-fluorobenzonitrile], the values for the half-maximal inhibitory concentration (IC50) against JAK2 and at JAK3 were 0.1 to 1 µM and below 0.1 µM, respectively.

For the compound `COCCCOc1cccc(Cn2ncc3cnc(Nc4cnn(C)c4)nc32)c1` [Example 169, 1-(3-(3-Methoxypropoxy)benzyl)-N-(1-methyl-1H-pyrazol-4-yl)-1H-pyrazolo[3,4-d]pyrimidin-6-amine], the half-maximal inhibitory concentration (IC50) against JAK2 was at least 10 µM; against JAK3, 0.1 to 1 µM.

Take `CN1CCN(C(=O)c2ccc(-n3ncc4cnc(Nc5cnn(C)c5)nc43)cc2)CC1` [Example 149, (4-(6-((1-Methyl-1H-pyrazol-4-yl)amino)-1H-pyrazolo[3,4-d]pyrimidin-1-yl)phenyl)(4-methylpiperazin-1-yl)methanone]: the half-maximal inhibitory concentration (IC50) against JAK2 fell in the range of 1 to 10 µM; on JAK3, 0.1 to 1 µM.

Turning to `Cn1cc(Nc2ncc3cnn(Cc4cccc(NS(C)(=O)=O)c4)c3n2)cn1` [Example 140, N-(3-((6-((1-Methyl-1H-pyrazol-4-yl)amino)-1H-pyrazolo[3,4-d]pyrimidin-1-yl)methyl)phenyl)methanesulfonamide], the IC50 was 1 to 10 µM against JAK2 and below 0.1 µM on JAK3.

`Fc1ccccc1Cn1ncc2cnc(Nc3cnn(CCN4CCOCC4)c3)nc21` [Example 124, 1-(2-Fluorobenzyl)-N-(1-(2-morpholinoethyl)-1H-pyrazol-4-yl)-1H-pyrazolo[3,4-d]pyrimidin-6-amine]: the figures for the IC50 at JAK2 and on JAK3 were 0.1 to 1 µM and below 0.1 µM, respectively.

Consider `Cn1cc(Nc2ncc3cnn(Cc4cccc(N[C@@H]5CCOC5)n4)c3n2)cn1` [Example 187, (R)—N-(1-Methyl-1H-pyrazol-4-yl)-1-((6-((tetrahydrofuran-3-yl)amino)pyridin-2-yl)methyl)-1H-pyrazolo[3,4-d]pyrimidin-6-amine], for which the figures for the 50% inhibitory concentration (IC50) at JAK2 and on JAK3 were at least 10 µM and below 0.1 µM, respectively.

Regarding `COc1nn(CCO)cc1Nc1ncc2cnn(Cc3cc(F)ccc3F)c2n1` [Example 51, 2-(4-(1-(2,5-Difluorobenzyl)-1H-pyrazolo[3,4-d]pyrimidin-6-ylamino)-3-methoxy-1H-pyrazol-1-yl)ethanol], the half-inhibitory concentration (IC50) against JAK2 was 1 to 10 µM; at JAK3, below 0.1 µM.

Take `Cc1nn(CCO)cc1Nc1ncc2cnn(Cc3ccccc3)c2n1` [Example 113, 2-(4-((1-Benzyl-1H-pyrazolo[3,4-d]pyrimidin-6-yl)amino)-3-methyl-1H-pyrazol-1-yl)ethanol]: the figures for the IC50 against JAK2 and against JAK3 were 1 to 10 µM and below 0.1 µM, respectively.

As to `Cn1cc(Nc2ncc3cnn(Cc4ccccc4OCCO)c3n2)cn1` [Example 168, 2-(2-((6-((1-Methyl-1H-pyrazol-4-yl)amino)-1H-pyrazolo[3,4-d]pyrimidin-1-yl)methyl)phenoxy)ethanol], the half-maximal inhibitory concentration (IC50) against JAK2 is 1 to 10 µM; on JAK3 it was below 0.1 µM.

As to `Cn1cc(Nc2ncc3cnn(Cc4cccc(OCC(N)=O)c4)c3n2)cn1` [Example 209], the IC50 on JAK2 is 1 to 10 µM; on JAK3, below 0.1 µM.

For the compound `Cn1cc(Nc2ncc3cnn(-c4ccc(F)cc4)c3n2)cn1` [Example 56, 1-(4-Fluorophenyl)-N-(1-methyl-1H-pyrazol-4-yl)-1H-pyrazolo[3,4-d]pyrimidin-6-amine], the IC50 lay within 1 to 10 µM against JAK2 and 0.1 to 1 µM against JAK3.

For the compound `Cc1nn(CC(F)F)cc1Nc1ncc2cnn(Cc3ccccc3)c2n1` [Example 120, 1-Benzyl-N-(1-(2,2-difluoroethyl)-3-methyl-1H-pyrazol-4-yl)-1H-pyrazolo[3,4-d]pyrimidin-6-amine], the half-inhibitory concentration (IC50) is at least 10 µM against JAK2 and 0.1 to 1 µM at JAK3.

In the case of `Cn1cc(Nc2ncc3cnn(Cc4cccc(N5CCCC5)n4)c3n2)cn1` [Example 188, N-(1-Methyl-1H-pyrazol-4-yl)-1-((6-(pyrrolidin-1-yl)pyridin-2-yl)methyl)-1H-pyrazolo[3,4-d]pyrimidin-6-amine], the values for the IC50 on JAK2 and on JAK3 were at least 10 µM and 0.1 to 1 µM, respectively.

Turning to `Cn1cc(Nc2ncc3cnn(-c4ccc(S(N)(=O)=O)c(F)c4)c3n2)cn1` [Example 138, 2-Fluoro-4-(6-((1-methyl-1H-pyrazol-4-yl)amino)-1H-pyrazolo[3,4-d]pyrimidin-1-yl)benzenesulfonamide], the values for the half-inhibitory concentration (IC50) against JAK2 and on JAK3 were 1 to 10 µM and 0.1 to 1 µM, respectively.

In the case of `Cc1c(O)cccc1Cn1ncc2cnc(Nc3cnn(C)c3)nc21` [Example 179], the IC50 is 1 to 10 µM against JAK2 and below 0.1 µM on JAK3.

Regarding `Cn1cc(Nc2ncc3cnn(-c4cccc(C(=O)N5CCOCC5)c4)c3n2)cn1` [Example 146, (3-(6-((1-Methyl-1H-pyrazol-4-yl)amino)-1H-pyrazolo[3,4-d]pyrimidin-1-yl)phenyl)(morpholino)methanone], the half-maximal inhibitory concentration (IC50) at JAK2 lay within 1 to 10 µM; on JAK3, 0.1 to 1 µM.

As usually defined, the IC50 is the concentration that inhibits the measured activity by half.
